SMILES strings stand for the structures.

The subject of this assay is human Peripheral Blood Mononuclear Cell (PMBC). Kind of assay: PBMC assay: cytokine (IFN-α) stimulation at 24 hours. The class given is cell-based. The note with it: lowest concentration stimulating IFN-α production at least 3-fold over background, Luminex, read-out: IFN MEC. On the procedure: Assays were conducted to determine cytokine stimulation at 24 hours from human Peripheral Blood Mononuclear Cell (PMBC) using the compounds of the present invention. The assays were run in duplicate, with 8-point, half-log dilution curves. The compounds of the present invention were diluted from 10 mM DMSO solution. Cell supernatants are assayed directly for IFNα and 1:10 dilution for TNFα. The assays were performed in a similar fashion as described in Bioorg. […] Specifically, cryo-preserved PBMCs were thawed and seeded 96 well plates with 750,000 cells/well in 190 μL/well cell media. The PBMCs were then incubated for 1 hour at 37° C. at 5% CO2. Then, the compounds of the present invention were added in 10 μL cell media at 8 point, half-log dilution titration. The plates were incubated at 37° C. and 5% CO2 for 24 hours and then spinned at 1200 rpm for 10 min, which was followed by collecting supernatant and storing the same at −80° C. Cytokine secretion was assayed with Luminex and Upstate multi-plex kits, using a Luminex analysis instrument. The IFN-α MEC value for a compound was the lowest concentration at which the compound stimulated IFN-α production at least 3-fold over the background as determined using the assay method above.
For the molecule `CCCCOc1nc(N)c2c(n1)N(Cc1ccc3c(c1)CN(CC)CC3)CC(=O)N2` [Example 52], the minimal effective concentration is at most 0.03 µM.
For `Nc1nc(NCC2CCCO2)nc2c1NC(=O)CN2Cc1cccc(CN2CCCC2)c1` (stereo not drawn) [Example 77] the value was over 0.03 µM; for `CCCCOc1nc(N)c2c(n1)N(Cc1ccc(-c3cccc(CN4CCCC4)c3)cc1)CC(=O)N2` [Example 96], at most 0.03 µM.
The result for `CCCCOc1nc(N)c2c(n1)N(Cc1ccc3c(c1)CCN(CC1CC1)C3)CC(=O)N2` [Example 106] reads over 0.03 µM; that for `Nc1nc(N2CCC2)nc2c1NC(=O)CN2Cc1cccc(CN2CCCC2)c1` [Example 42], over 0.03 µM.
Consider `CS(=O)(=O)CCNc1nc(N)c2c(n1)N(Cc1cccc(CN3CCCC3)c1)CC(=O)N2` [Example 44], for which the minimal effective concentration was over 0.03 µM.
On to `CC(C)CCOc1nc(N)c2c(n1)N(Cc1cccc(CN3CCCC3)c1)CC(=O)N2` [Example 11], for which the minimal effective concentration was over 0.03 µM.
With `CCCCSc1nc(N)c2c(n1)N(Cc1cccc(CN3CCCC3)c1)CC(=O)N2` [Example 26], the minimal effective concentration is over 0.03 µM.
Regarding `CCCN(C)C(=O)c1nc(N)c2c(n1)N(Cc1ccc(CN3CCCC3)cc1)CC(=O)N2` [Example 85], the minimal effective concentration was over 0.03 µM.
The result for `CCCC(C)Oc1nc(N)c2c(n1)N(Cc1ccc(C)nc1)CC(=O)N2` (stereo not drawn) [Example 109] reads over 0.03 µM; that for `Nc1nc(OCCn2ccnc2)nc2c1NC(=O)CN2Cc1cccc(CN2CCCC2)c1` [Example 19], over 0.03 µM.
For `COCCOc1nc(N)c2[nH]c(=O)c(=O)n(Cc3ccc(-c4ccc(CN5CCCC5)cc4)cc3)c2n1` [Example 99] the value was at most 0.03 µM.
As to `CCCCOc1nc(N)c2c(n1)N(Cc1ccc3c(c1)CN(CC1CCC1)CC3)CC(=O)N2` [Example 72], the minimal effective concentration was at most 0.03 µM.
The result for `CCCCNc1nc(N)c2c(n1)N(Cc1ccnc(N3CCOCC3)c1)CC(=O)N2` [Example 78] reads over 0.03 µM.
Regarding `CCOP(=O)(CCNc1nc(N)c2c(n1)N(Cc1cccc(CN3CCCC3)c1)CC(=O)N2)OCC` [Example 45], the minimal effective concentration was over 0.03 µM.
For `CCC[C@H](C)Oc1nc(N)c2c(n1)N(Cc1ccc(CN3CCCC3)cc1)CC(=O)N2` [Example 61] the value was at most 0.03 µM; for `Nc1nc(OCc2ccccc2)nc2c1NC(=O)CN2Cc1cccc(CN2CCCC2)c1` [Example 15], over 0.03 µM; for `Nc1nc(OCC2CCCO2)nc2c1NC(=O)CN2Cc1ccnc(N2CCOCC2)c1` (stereo not drawn) [Example 67], over 0.03 µM.
With `Nc1nc(O[C@@H]2C[C@@H]3C[C@@H]3C2)nc2c1NC(=O)CN2Cc1cccc(CN2CCCC2)c1` [Example 68], the minimal effective concentration was at most 0.03 µM.
The result for `CCCCOc1nc(N)c2c(n1)N(Cc1ccc3c(c1)CN(C(C)C)CC3)CC(=O)N2` [Example 71] reads at most 0.03 µM; that for `CCCN(C)C(=O)c1nc(N)c2[nH]c(=O)c(=O)n(Cc3ccc(CN4CCCC4)cc3)c2n1` [Example 93], at most 0.03 µM; that for `CCCCOc1nc(N)c2[nH]c(=O)c(=O)n(Cc3ccc(C)nc3)c2n1` [Example 112], over 0.03 µM.
With `Nc1nc(NCC2CC2)nc2c1NC(=O)CN2Cc1cccc(CN2CCCC2)c1` [Example 39], the minimal effective concentration was at most 0.03 µM.
For `CCCCOc1nc(N)c2[nH]c(=O)c(=O)n(Cc3ccc(-c4cccc(CN5CCCC5)c4)cc3)c2n1` [Example 97], the minimal effective concentration is at most 0.03 µM.
The result for `CCCCOc1nc(N)c2c(n1)N(CCC1CCN(Cc3ccccc3)CC1)CC(=O)N2` [Example 108] reads over 0.03 µM; that for `Nc1nc(OCCC(F)(F)F)nc2c1NC(=O)CN2Cc1cccc(CN2CCCC2)c1` [Example 55], at most 0.03 µM.
As for `Nc1nc(NCc2ccco2)nc2c1NC(=O)CN2Cc1cccc(CN2CCCC2)c1` [Example 38], the minimal effective concentration is at most 0.03 µM.

The values are drawn from patent US11110091B2, “Modulators of toll-like receptors” (Gilead Sciences, Inc., priority 2008, dated 2021).
